According to patent US8975246B2, “Bile acid or bile salt fatty acid conjugates” (Galmed Research and Development Ltd., priority 2001, dated 2015):

Tested on: Inbred C57J/L mice
Assay: Liver lipid/protein ratio, mice on high fat lithogenic diet
Type: in vivo
Details: BAFAC 150 mg/Kg daily by gavage, 5 weeks
Experimental: Inbred C57J/L mice, 4 weeks old and weighing approx. 20 gm (Jackson Lab. Maine, USA) were used. They were fed for 5 weeks a high fat lithogenic diet consisting of: Cholesterol 1%, Cholic Acid 0.5%, lard 10%, butter 6%, palmitic acid 1.2% and corn oil 2% added (w/w) to their regular diet. In addition to the diet the animals were given daily, by gavage, either a BAFAC (150 mg/Kg) suspended in saline or an equal volume of saline only. The BAFACs were conjugates of cholic acid (at position 3) with either Palmitic Acid (C-16) or Arachidic Acid (C-20) or Behenic Acid (C-22) using an amide bond. The controls (n=5) received saline, the test animals received either the C-16 conjugate (n=5), the C-20 conjugate (n=5) or the C-22 conjugate (n=3). After 5 weeks, following an overnight fast, the animals were anesthetized using ketamine, the liver was removed, and the animals were sacrificed by ketamine overdose. A 0.5 gm sample of liver was homogenized in 5 ml of buffered saline. Liver lipids were extracted from the homogenate by the Folch method using chloroform:methanol (2:1, vol/vol). Half a ml of the homogenate were extracted in 5 ml of the Folch solution. After evaporation of the solvent the lipids were weighed and reevaporated several times until constant weight was obtained. The proteins were quantified in another aliquot of the homogenate according to the method of Bradford. (Bradford M. M., Annal Biochem. 1976, 72:248).
The lipid protein ratio (mg/mg) was calculated. The results for each group are given as means (+St. Dev.) The group values were: […]

## CCCCCCCCCCCCCCCC(=O)NC1CCC2(C)C(C1)CC(O)C1C2CC(O)C2(C)C(C(C)CCC(=O)O)CCC12 (centres unmarked) [C-16 BAFAC]
  lipid protein ratio in liver, mean (+St. Dev.): 2.25 ± 1.20 mg/mg

## CCCCCCCCCCCCCCCCCCCCCC(=O)NC1CCC2(C)C(C1)CC(O)C1C2CC(O)C2(C)C(C(C)CCC(=O)O)CCC12 (centres unmarked) [C-22 BAFAC]
  lipid protein ratio in liver, mean (+St. Dev.): 3.00 ± 1.08 mg/mg
